Data: ChEMBL document CHEMBL1201862, “PubChem BioAssay data set” (2004)
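In this assay, cells in 96-well plates receive the compound at five concentrations for 48 hours. Endpoints are linearly interpolated between the surrounding concentrations. GI50: concentration for 50% inhibition of growth.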 Active and inactive are the calls of the source. No stated cut-off is given here; in the data, active = GI50 up to about 1.1 µM and inactive = higher.

Key:
Experiment in all cases: DTP human tumour cell line panel, 48 h
OVCAR-5 = tested on: OVCAR-5
HCT-15 = tested on: HCT-15
SN12C = tested on: SN12C
CAKI-1 = tested on: CAKI-1
TK-10 = tested on: TK-10
RPMI-8226 = tested on: RPMI-8226
OVCAR-8 = tested on: OVCAR-8
UACC-62 = tested on: UACC-62
SNB-19 = tested on: SNB-19
SW-620 = tested on: SW-620
UACC-257 = tested on: UACC-257
SF-295 = tested on: SF-295
OVCAR-4 = tested on: OVCAR-4
HT-29 = tested on: HT-29
NCI-H226 = tested on: NCI-H226
SK-MEL-2 = tested on: SK-MEL-2
SK-OV-3 = tested on: SK-OV-3
KM12 = tested on: KM12
IGROV-1 = tested on: IGROV-1
SR = tested on: SR

SMILES	GI50 (OVCAR-5)	GI50 (HCT-15) [µM]	GI50 (SN12C)	GI50 (CAKI-1)	GI50 (TK-10)	GI50 (RPMI-8226)	GI50 (OVCAR-8)	GI50 (UACC-62)	GI50 (SNB-19)	GI50 (SW-620)	GI50 (UACC-257)	GI50 (SF-295)	GI50 (OVCAR-4)	GI50 (HT-29)	GI50 (NCI-H226)	GI50 (SK-MEL-2)	GI50 (SK-OV-3)	GI50 (KM12)	GI50 (IGROV-1)	GI50 (SR)
NCCCCNCCCNC(=O)c1nc(-c2csc(CCN)n2)sc1Cl	> 100 µM (inactive)	> 100	> 100 µM (inactive)	> 100 µM (inactive)	> 100 µM (inactive)	> 100 µM (inactive)	> 100 µM (inactive)	> 100 µM (inactive)	> 100 µM (inactive)	> 100 µM (inactive)	> 100 µM (inactive)	> 100 µM (inactive)	> 100 µM (inactive)	> 100 µM (inactive)	> 100 µM (inactive)	> 100 µM (inactive)	> 100 µM (inactive)	> 100 µM (inactive)	> 100 µM (inactive)	> 100 µM (inactive)
COC(=O)C[C@H](COCc1ccccc1)NC(=O)C[C@H](COCc1ccccc1)NC(=O)C[C@H](COCc1ccccc1)NC(=O)OC(C)(C)C	> 100 µM (inactive)	> 100	41.4 µM (inactive)	> 100 µM (inactive)		> 100 µM (inactive)	23.8 µM (inactive)	> 100 µM (inactive)	> 100 µM (inactive)	> 100 µM (inactive)		88.9 µM (inactive)	3.97 µM (inactive)	72.8 µM (inactive)	> 100 µM (inactive)	> 100 µM (inactive)	60.8 µM (inactive)	> 100 µM (inactive)	> 100 µM (inactive)	35.3 µM (inactive)
C[n+]1cn(-c2ccc([N+](=O)[O-])cn2)c2ccccc21	> 100 µM (inactive)	> 100		> 100 µM (inactive)	> 100 µM (inactive)	> 100 µM (inactive)	> 100 µM (inactive)	> 100 µM (inactive)	> 100 µM (inactive)	> 100 µM (inactive)	> 100 µM (inactive)	> 100 µM (inactive)	> 100 µM (inactive)	> 100 µM (inactive)	> 100 µM (inactive)	> 100 µM (inactive)	> 100 µM (inactive)	> 100 µM (inactive)	> 100 µM (inactive)	> 100 µM (inactive)
CCCSc1cc(Cl)c(C)cc1S(=O)(=O)n1ccnc1OCCCN(C)C	> 100 µM (inactive)	> 100	> 100 µM (inactive)	> 100 µM (inactive)	> 100 µM (inactive)		> 100 µM (inactive)	> 100 µM (inactive)	> 100 µM (inactive)	> 100 µM (inactive)	> 100 µM (inactive)	> 100 µM (inactive)	> 100 µM (inactive)	> 100 µM (inactive)	> 100 µM (inactive)	> 100 µM (inactive)	> 100 µM (inactive)	> 100 µM (inactive)	> 100 µM (inactive)	> 100 µM (inactive)
CP(C)(=S)P(C)(C)=S	> 100 µM (inactive)	> 100	> 100 µM (inactive)	> 100 µM (inactive)	> 100 µM (inactive)	> 100 µM (inactive)	> 100 µM (inactive)	> 100 µM (inactive)	> 100 µM (inactive)	> 100 µM (inactive)	> 100 µM (inactive)	> 100 µM (inactive)	> 100 µM (inactive)	> 100 µM (inactive)	> 100 µM (inactive)	> 100 µM (inactive)	> 100 µM (inactive)		78.5 µM (inactive)	> 100 µM (inactive)
O=C1C(Cl)=C(Cl)C(=O)N1C1C2CC3CC(C2)CC1C3 (stereo unspecified)	> 100 µM (inactive)	> 100	> 100 µM (inactive)	38.3 µM (inactive)	> 100 µM (inactive)	27 µM (inactive)	> 76.4 µM (inactive)	> 100 µM (inactive)	> 100 µM (inactive)	47 µM (inactive)	> 100 µM (inactive)	> 100 µM (inactive)	> 100 µM (inactive)	> 100 µM (inactive)	> 100 µM (inactive)	> 100 µM (inactive)	> 100 µM (inactive)		> 100 µM (inactive)	31 µM (inactive)
CC1=NOC(=O)/C1=C/c1ccc([N+](=O)[O-])cc1	> 100 µM (inactive)	> 100	> 100 µM (inactive)	> 100 µM (inactive)	> 100 µM (inactive)		> 100 µM (inactive)	> 100 µM (inactive)	> 100 µM (inactive)	59 µM (inactive)	> 100 µM (inactive)	> 100 µM (inactive)	> 100 µM (inactive)	> 100 µM (inactive)	> 100 µM (inactive)	> 100 µM (inactive)	> 100 µM (inactive)	> 100 µM (inactive)	> 100 µM (inactive)	> 100 µM (inactive)
Cc1cccc(N(CCC#N)S(=O)(=O)c2ccccc2)c1	> 100 µM (inactive)	> 10	> 100 µM (inactive)	> 100 µM (inactive)	> 100 µM (inactive)	> 100 µM (inactive)	> 100 µM (inactive)	> 100 µM (inactive)	> 100 µM (inactive)	> 100 µM (inactive)	> 100 µM (inactive)		> 100 µM (inactive)	> 100 µM (inactive)	> 100 µM (inactive)	> 100 µM (inactive)	> 100 µM (inactive)	> 100 µM (inactive)	> 100 µM (inactive)	> 100 µM (inactive)
O=C1CCC[C@H]2O[C@@H](COC(=O)c3ccccc3)C[C@H]2O1	> 100 µM (inactive)	> 100	> 100 µM (inactive)	> 100 µM (inactive)		> 100 µM (inactive)	> 100 µM (inactive)	> 100 µM (inactive)	> 100 µM (inactive)	> 100 µM (inactive)	> 100 µM (inactive)	> 100 µM (inactive)	> 100 µM (inactive)	> 100 µM (inactive)	> 100 µM (inactive)	> 100 µM (inactive)	> 100 µM (inactive)	> 100 µM (inactive)	> 100 µM (inactive)	> 100 µM (inactive)
CC(=O)OC[C@@]12Cc3ccc(C)c(O)c3[C@]1(C)[C@@H](OC(C)=O)[C@]1(O)[C@H]([C@@H](OC(=O)c3ccccc3)[C@@H](C)[C@H]1OC(C)=O)[C@H]2OC(C)=O	> 50 µM (inactive)	> 50	> 50 µM (inactive)	> 50 µM (inactive)	> 50 µM (inactive)		> 50 µM (inactive)	> 50 µM (inactive)	> 50 µM (inactive)	> 50 µM (inactive)	> 50 µM (inactive)	> 50 µM (inactive)	> 50 µM (inactive)		> 50 µM (inactive)	> 50 µM (inactive)	> 50 µM (inactive)	> 50 µM (inactive)	> 50 µM (inactive)	> 50 µM (inactive)
CC1CC(=O)N2CCCNC2=C1C#N (stereo unspecified)		> 100	> 100 µM (inactive)	> 100 µM (inactive)	> 100 µM (inactive)	> 100 µM (inactive)	> 100 µM (inactive)	> 100 µM (inactive)	> 100 µM (inactive)	> 100 µM (inactive)	> 100 µM (inactive)	> 100 µM (inactive)	> 100 µM (inactive)	> 100 µM (inactive)	> 100 µM (inactive)	> 100 µM (inactive)	> 100 µM (inactive)	> 100 µM (inactive)	> 100 µM (inactive)	> 100 µM (inactive)
COc1ccc(/C=C2\Sc3nnc(CNc4ccc(Cl)cc4)n3N=C2c2cc(F)c(Cl)cc2Cl)cc1OC	88.9 µM (inactive)	15.9		23.6 µM (inactive)	86.7 µM (inactive)	7.57 µM (inactive)	24.7 µM (inactive)			15.8 µM (inactive)	> 100 µM (inactive)	> 100 µM (inactive)	22.5 µM (inactive)	28.6 µM (inactive)	> 100 µM (inactive)	> 100 µM (inactive)	> 100 µM (inactive)	83.8 µM (inactive)	> 100 µM (inactive)	21 µM (inactive)
Cc1ccc(C(=O)N/N=C(\N=N\c2ccccc2)c2ccc(N(CCC#N)CCC#N)cc2C)cc1	> 100 µM (inactive)	> 100		64.6 µM (inactive)	51.1 µM (inactive)	> 100 µM (inactive)	38 µM (inactive)	38.8 µM (inactive)	58.3 µM (inactive)	> 100 µM (inactive)	82.4 µM (inactive)	86.5 µM (inactive)	65.5 µM (inactive)	35.1 µM (inactive)	54.8 µM (inactive)	69.8 µM (inactive)	74 µM (inactive)	> 100 µM (inactive)	> 100 µM (inactive)	> 100 µM (inactive)
[O-]/N=[N+](/[O-])C1CCCCC1=[N+]1CCOCC1 (stereo unspecified)	> 100 µM (inactive)		> 100 µM (inactive)	> 100 µM (inactive)	> 100 µM (inactive)	> 100 µM (inactive)	> 100 µM (inactive)	> 100 µM (inactive)	> 100 µM (inactive)	> 100 µM (inactive)	> 100 µM (inactive)	> 100 µM (inactive)	> 100 µM (inactive)	> 100 µM (inactive)	> 100 µM (inactive)	> 100 µM (inactive)	> 100 µM (inactive)	> 100 µM (inactive)		> 100 µM (inactive)
CC(=O)c1sc(Nc2nnc(-c3ccc(-c4nnc(Nc5nc(C)c(C(C)=O)s5)o4)cc3)o2)nc1C	> 10 µM (inactive)	> 100	> 100 µM (inactive)	> 10 µM (inactive)	> 100 µM (inactive)	> 100 µM (inactive)	> 100 µM (inactive)	> 100 µM (inactive)	> 100 µM (inactive)	> 100 µM (inactive)	> 100 µM (inactive)	> 100 µM (inactive)	> 100 µM (inactive)	> 100 µM (inactive)	> 100 µM (inactive)		> 10 µM (inactive)	> 10 µM (inactive)	> 100 µM (inactive)	> 100 µM (inactive)
